Values joined by “and” are separate entries in the source; they are usually repeats but may differ in a detail not shown here. Equal values may be shown once. Read-outs that look alike come from different tables or passages of the source.
Assays:
[1] = test system: human Methionine Amino Peptidase 2; settings: cited from earlier work
CYP2B4 = settings: 25°C; relative to 1-PI / 4-PI; cited from earlier work
CYP3A4 [2] = assay: UV/vis absorbance titration of purified CYP3A4; assay type: binding, human; settings: for optical binding spectrum type: UV/vis difference spectrum; for Soret Red Shift: comparison of 1,2,3-TRZ and 17-click
[3] = cited from earlier work; for pKa: solution pKa
CYP3A4 [4] = settings: 5–30 °C, 100 mM KPi pH 7.4 + 20% glycerol
CYP2C9 (hepta mutant) = assay: UV/vis absorbance titration of purified CYP2C9; assay type: binding, human
CYP3A4 [5] = target: T1, CYP3A4 (Homo sapiens, UniProt P08684); assay: Substrate depletion by CYP3A4 Supersomes; assay type: in vitro ADME
T1 sequence (P08684 whole entry): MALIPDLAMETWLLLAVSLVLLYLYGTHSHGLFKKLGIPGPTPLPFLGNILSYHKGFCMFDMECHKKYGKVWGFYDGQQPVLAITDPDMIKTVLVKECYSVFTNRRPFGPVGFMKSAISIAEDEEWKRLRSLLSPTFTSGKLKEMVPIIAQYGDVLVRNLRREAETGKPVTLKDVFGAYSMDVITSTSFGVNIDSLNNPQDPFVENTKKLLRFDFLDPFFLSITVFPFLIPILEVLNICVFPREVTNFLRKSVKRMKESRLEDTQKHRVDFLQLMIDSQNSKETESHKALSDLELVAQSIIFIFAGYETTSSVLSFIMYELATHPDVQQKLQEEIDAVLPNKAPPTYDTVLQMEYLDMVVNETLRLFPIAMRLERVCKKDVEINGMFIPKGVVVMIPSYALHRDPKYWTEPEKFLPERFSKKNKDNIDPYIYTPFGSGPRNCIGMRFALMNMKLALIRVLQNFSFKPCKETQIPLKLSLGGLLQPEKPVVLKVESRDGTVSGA

CYP3A4 [6] = target: T1, CYP3A4; assay: Inhibition of testosterone 6β-hydroxylation by CYP3A4 in Supersomes; assay type: biochemical; settings: 50 μM testosterone, LC-MS/MS
CYP3A4 [7] = settings: CYP3A4 Supersomes, cited from earlier work
CYP3A4 [8] = settings: cited from earlier work
[9] = 20°C, 100 mM KPi pH 7.4 + 20% glycerol

Q: With `Cc1cccc(-c2c[nH]nn2)c1` [4-(3-methylphenyl)-1H-1,2,3-triazole] as the compound, how does the affinity [1] read?
A: 0.018 µM

Q: For `Clc1ccc(-n2ccnc2)cc1` [1-CPI], which “ΔΔH°binding on chloro substitution” value (CYP2B4) is on record?
A: -0.07 kcal/mol

Q: Which results are given for `c1c[nH]nn1` [1,2,3-TRZ, 1H-1,2,3-triazole]?
A: Abs390 (1μM), estimate of efficiency of type II ligand to decrease high spin enzyme fraction (CYP3A4 [2]; 20°C): −0.023; Absmax (1μM), maximum peak trough intensity normalized to 1 μM (CYP3A4 [2]; 20°C): 0.058; Soret band red shift (CYP3A4 [2]; 20°C): 6 nm; Kd (CYP3A4 [2]; [9]): 14300 µM; optical binding spectrum type (CYP3A4 [2]): type II; Soret Red Shift (CYP3A4 [2]): 6 nm; fold lower affinity vs. IMZ (CYP3A4 [2]; from KD): ~ 38 fold; ΔAbsmax (1μM), peak minus trough intensity from difference spectrum (CYP3A4 [2]; normalized to 1 μM): 0.058; pKa [3]: 1.15; ΔH°binding (CYP3A4 [4]): -8.8 ± 0.1 kcal/mol; ΔS°binding (CYP3A4 [4]): −22 ± 0.4 cal/mol/K; Absmax (1μM), maximum peak trough intensity normalized to 1 μM (CYP2C9 (hepta mutant); 20°C): 0.041; Soret band red shift (CYP2C9 (hepta mutant); 20°C): 2 nm; Kd (CYP2C9 (hepta mutant); [9]): 10000 µM; optical binding spectrum type (CYP2C9 (hepta mutant); UV/vis difference spectrum): type II; fold lower affinity vs. 1,2,4-TRZ (CYP2C9 (hepta mutant); from KD): ~50 fold; fold lower affinity vs. IMZ (CYP2C9 (hepta mutant); from KD): ~ 101 fold

Q: For `CC12CCC3c4ccc(O)cc4CCC3C1CCC2(O)c1cn[nH]n1` (stereo not drawn) [17-click, 17α-(2H-2,3,4-triazolyl)-estradiol], which compound remaining (CYP3A4 [5]; 2.5 μM substrate, 25 min incubation, 100 nM CYP3A4 in Supersomes) is on record?
A: ~ 50%

Q: And the “metabolism slowed relative to the parent molecule” value (CYP3A4 [5]; CYP3A4 Supersomes, relative to 17EE)?
A: 3 – 10 fold

Q: What about the Km (CYP3A4 [5]; read-out: KM for total metabolism, substrate depletion, CYP3A4 Supersomes) of the same compound?
A: 2.5 ± 0.4 µM

Q: And the “kcat for total metabolism” value (CYP3A4 [5]; substrate depletion, CYP3A4 Supersomes)?
A: 0.035 ± 0.005 s⁻¹

Q: And the Kd (CYP3A4 [2]; 25°C, 100 mM KPi, hyperbolic binding model)?
A: 45.8 µM and 46 µM

Q: And the “optical binding spectrum type” value (CYP3A4 [2])?
A: type II

Q: What about the “Soret Red Shift” value (CYP3A4 [2]) of the same compound?
A: 2 nm

Q: What about the Kd (CYP3A4 [2]; read-out: KD200mM, 200 mM KPi) of the same compound?
A: 78 µM

Q: And the IC50 (CYP3A4 [6])?
A: 17 ± 6 µM

Q: With `c1nc[nH]n1` [1,2,4-TRZ, 1H-1,2,4-triazole] as the compound, how does the “Abs390 (1μM), estimate of efficiency of type II ligand to decrease high spin enzyme fraction” value (CYP3A4 [2]; 20°C) read?
A: −0.025

Q: And the “Soret band red shift” value (CYP3A4 [2]; 20°C)?
A: 6 nm

Q: What about the “Absmax (1μM), first value of two site fit” value (CYP3A4 [2]; 20°C, two site model) of the same compound?
A: 0.0065

Q: And the “Absmax (1μM), second value of two site fit” value (CYP3A4 [2]; 20°C, two site model)?
A: 0.050

Q: And the Kd (CYP3A4 [2]; read-out: KD1, 20°C, two site binding model, first (high affinity) equivalent)?
A: 39 µM

Q: What about the Kd (CYP3A4 [2]; read-out: KD2, 20°C, two site binding model, second (low affinity) equivalent) of the same compound?
A: 4800 µM

Q: And the pKa [3]?
A: 2.45

Q: What about the “Soret band red shift” value (CYP2C9 (hepta mutant); 20°C) of the same compound?
A: 5 nm

Q: And the “Absmax (1μM), first value of two site fit” value (CYP2C9 (hepta mutant); 20°C, two site model)?
A: 0.023

Q: What about the “Absmax (1μM), second value of two site fit” value (CYP2C9 (hepta mutant); 20°C, two site model) of the same compound?
A: 0.044

Q: What about the Kd (CYP2C9 (hepta mutant); read-out: KD1, 20°C, two site binding model, first equivalent) of the same compound?
A: 198 µM

Q: What about the Kd (CYP2C9 (hepta mutant); read-out: KD2, 20°C, two site binding model, second low affinity equivalent) of the same compound?
A: 2850 µM

Q: Which pKa298K ([3]; proton dissociation in 100 mM potassium chloride) does the source give for `c1c[nH]cn1` [IMZ, imidazole] here?
A: 7.09 ± 0.1

Q: What about the pKa [3] of the same compound?
A: 6.99

Q: And the “ΔH°binding” value (CYP3A4 [4])?
A: -8.1 ± 0.3 kcal/mol

Q: And the “ΔS°binding” value (CYP3A4 [4])?
A: −10 ± 1 cal/mol/K

Q: What does the source list for `C#C[C@]1(O)CC[C@H]2[C@@H]3CCc4cc(O)ccc4[C@H]3CC[C@@]21C` [17EE, 17α-ethynylestradiol]?
A: depletion rate, fold faster relative to 17-click (CYP3A4 [5]; low substrate concentrations, CYP3A4 Supersomes): […]; Hill coefficient (CYP3A4 [2]; 25°C): […]; optical binding spectrum type (CYP3A4 [2]): […]; Kd (CYP3A4 [2]; read-out: KD1, 25°C, two site sequential binding model, first (spin silent) equivalent): […]; Kd (CYP3A4 [2]; read-out: KD2, 25°C, two site sequential binding model, second equivalent): […]; Kd (CYP3A4 [2]; read-out: Ks (Hill plot), 25°C, 100 mM KPi pH 7.4 + 20% glycerol): […]; kcat for formation of 2-OH 17EE (CYP3A4 [7]): 0.000867 ± 0.00012 s⁻¹; Km (CYP3A4 [7]; read-out: KM for formation of 2-OH 17EE): 2.5 ± 1.1 µM; partition ratio (CYP3A4 [8]): […]

Source: article PMC3448000 (Biochemistry, 2012)
